How the values were obtained:
Assay in all cases: Test F pre-/postemergence plant response
Format in all cases: in vivo
[1] = system: Brazilian crabgrass (Digitaria horizontalis); conditions: Digitaria horizontalis, pre-emergence, scale 0 to 100, read-out: Plant response rating, Crabgrass, Brazil
Procedure, shortened: (§1)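 Herbicidal effect judged by eye against controls, scored 0–100 (complete control = 100). Applications: pre-emergence onto seeded silt loam, post-emergence onto 2–18 cm seedlings; greenhouse, 14–21 days.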

corn (Zea mays) = conditions: Zea mays, pre-emergence, scale 0 to 100
Procedure, shortened: as §1

[2] = system: dayflower (Virginia (VA) dayflower, Commelina virginica); conditions: Commelina virginica, pre-emergence, scale 0 to 100, read-out: Plant response rating, Dayflower, VA
Procedure, shortened: as §1

[3] = system: fall panicum (Panicum dichotomiflorum); conditions: Panicum dichotomiflorum, pre-emergence, scale 0 to 100, read-out: Plant response rating, Panicum, Fall
Procedure, shortened: as §1

[4] = system: field bindweed (Convolvulus arvensis); conditions: Convolvulus arvensis, pre-emergence, scale 0 to 100, read-out: Plant response rating, Field Bindweed
Procedure, shortened: as §1

[5] = system: giant foxtail (Setaria faberii); conditions: Setaria faberi, pre-emergence, scale 0 to 100, read-out: Plant response rating, Foxtail, Giant
Procedure, shortened: as §1

[6] = system: goosegrass (Eleusine indica); conditions: Eleusine indica, pre-emergence, scale 0 to 100, read-out: Plant response rating, Goosegrass
Procedure, shortened: as §1

[7] = system: green foxtail (Setaria viridis); conditions: Setaria viridis, pre-emergence, Preemergence, scale 0 to 100, read-out: Plant response rating, Foxtail, Green
Procedure, shortened: as §1

[8] = system: johnsongrass (Sorghum halepense); conditions: Sorghum halepense, pre-emergence, scale 0 to 100, read-out: Plant response rating, Johnsongrass
Procedure, shortened: as §1

[9] = system: lambsquarters (Chenopodium album); conditions: Chenopodium album, pre-emergence, Preemergence, scale 0 to 100, read-out: Plant response rating, Lambsquarters
Procedure, shortened: as §1

[10] = system: morningglory (Ipomoea coccinea); conditions: Ipomoea, pre-emergence, scale 0 to 100, read-out: Plant response rating, Morningglory
Procedure, shortened: as §1

[11] = system: palmer pigweed (Amaranthus palmeri); conditions: Amaranthus palmeri, pre-emergence, scale 0 to 100, read-out: Plant response rating, Pigweed, Palmer
Procedure, shortened: as §1

[12] = system: sandbur (southern sandbur, Cenchrus echinatus); conditions: Cenchrus echinatus, pre-emergence, scale 0 to 100, read-out: Plant response rating, Sandbur
Procedure, shortened: as §1

soybean (Glycine max) = conditions: Glycine max, pre-emergence, scale 0 to 100, read-out: Plant response rating, Soybean
Procedure, shortened: as §1

[13] = system: waterhemp (common waterhemp, Amaranthus rudis); conditions: Amaranthus tuberculatus, pre-emergence, scale 0 to 100, read-out: Plant response rating, Waterhemp
Procedure, shortened: as §1

[14] = system: wild poinsettia (Euphorbia heterophylla); conditions: Euphorbia heterophylla, pre-emergence, scale 0 to 100, read-out: Plant response rating, Poinsettia, Wild
Procedure, shortened: as §1

Fc1cccc(Oc2ncc(Cl)cn2)c1-c1cc(C(F)(F)F)on1 [Compound 168, 5-chloro-2-[2-[5-(trifluoromethyl)-3-isoxazolyl]-3-fluorophenoxy]pyrimidine]
pest or weed control at 16 g/ha ([1]; 16 g ai/ha Preemergence): 65% | pest or weed control at 31 g/ha ([1]; 31 g ai/ha Preemergence): 100% | pest or weed control at 62 g/ha ([1]; 62 g ai/ha Preemergence): 100% | pest or weed control at 125 g/ha ([1]; 125 g ai/ha Preemergence): 100% | Corn plant response rating (crop injury, 0 = no effect, 100 = complete kill) at 16 g/ha (corn (Zea mays); 16 g ai/ha Preemergence): 0% | Corn plant response rating (crop injury, 0 = no effect, 100 = complete kill) at 31 g/ha (corn (Zea mays); 31 g ai/ha Preemergence): 0% | Corn plant response rating (crop injury, 0 = no effect, 100 = complete kill) at 62 g/ha (corn (Zea mays); 62 g ai/ha Preemergence): 40% | Corn plant response rating (crop injury, 0 = no effect, 100 = complete kill) at 125 g/ha (corn (Zea mays); 125 g ai/ha Preemergence): 35% | pest or weed control at 16 g/ha ([2]; 16 g ai/ha Preemergence): 5% | pest or weed control at 31 g/ha ([2]; 31 g ai/ha Preemergence): 10% | pest or weed control at 62 g/ha ([2]; 62 g ai/ha Preemergence): 70% | pest or weed control at 125 g/ha ([2]; 125 g ai/ha Preemergence): 90% | pest or weed control at 16 g/ha ([3]; 16 g ai/ha Preemergence): 35% | pest or weed control at 31 g/ha ([3]; 31 g ai/ha Preemergence): 95% | pest or weed control at 125 g/ha ([3]; 125 g ai/ha Preemergence): 100% | pest or weed control at 62 g/ha ([3]; Preemergence): 100% | pest or weed control at 16 g/ha ([4]; 16 g ai/ha Preemergence): 40% | pest or weed control at 31 g/ha ([4]; 31 g ai/ha Preemergence): 60% | pest or weed control at 62 g/ha ([4]; 62 g ai/ha Preemergence): 50% | pest or weed control at 125 g/ha ([4]; 125 g ai/ha Preemergence): 70% | pest or weed control at 16 g/ha ([5]; 16 g ai/ha Preemergence): 65% | pest or weed control at 31 g/ha ([5]; 31 g ai/ha Preemergence): 98% | pest or weed control at 62 g/ha ([5]; 62 g ai/ha Preemergence): 100% | pest or weed control at 125 g/ha ([5]; 125 g ai/ha Preemergence): 100% | pest or weed control at 16 g/ha ([6]; 16 g ai/ha Preemergence): 80% | pest or weed control at 31 g/ha ([6]; 31 g ai/ha Preemergence): 95% | pest or weed control at 125 g/ha ([6]; 125 g ai/ha Preemergence): 100% | pest or weed control at 62 g/ha ([6]; Preemergence): 98% | pest or weed control at 16 g/ha ([7]; 16 g ai/ha): 70% | pest or weed control at 31 g/ha ([7]; 31 g ai/ha): 100% | pest or weed control at 125 g/ha ([7]; 125 g ai/ha): 100% | pest or weed control at 62 g/ha [7]: 100% | pest or weed control at 16 g/ha ([8]; 16 g ai/ha Preemergence): 0% | pest or weed control at 31 g/ha ([8]; 31 g ai/ha Preemergence): 30% | pest or weed control at 125 g/ha ([8]; 125 g ai/ha Preemergence): 100% | pest or weed control at 62 g/ha ([8]; Preemergence): 35% | pest or weed control at 16 g/ha ([9]; 16 g ai/ha): 100% | pest or weed control at 31 g/ha ([9]; 31 g ai/ha): 100% | pest or weed control at 125 g/ha ([9]; 125 g ai/ha): 100% | pest or weed control at 62 g/ha [9]: 100% | pest or weed control at 16 g/ha ([10]; 16 g ai/ha Preemergence): 0% | pest or weed control at 31 g/ha ([10]; 31 g ai/ha Preemergence): 0% | pest or weed control at 125 g/ha ([10]; 125 g ai/ha Preemergence): 75% | pest or weed control at 62 g/ha ([10]; Preemergence): 15% | pest or weed control at 16 g/ha ([11]; 16 g ai/ha Preemergence): 98% | pest or weed control at 31 g/ha ([11]; 31 g ai/ha Preemergence): 100% | pest or weed control at 125 g/ha ([11]; 125 g ai/ha Preemergence): 100% | pest or weed control at 62 g/ha ([11]; Preemergence): 100% | pest or weed control at 16 g/ha ([12]; 16 g ai/ha Preemergence): 10% | pest or weed control at 31 g/ha ([12]; 31 g ai/ha Preemergence): 30% | pest or weed control at 125 g/ha ([12]; 125 g ai/ha Preemergence): 90% | pest or weed control at 62 g/ha ([12]; Preemergence): 65% | plant injury at 16 g/ha (soybean (Glycine max); 16 g ai/ha Preemergence): 0% | plant injury at 31 g/ha (soybean (Glycine max); 31 g ai/ha Preemergence): 0% | plant injury at 125 g/ha (soybean (Glycine max); 125 g ai/ha Preemergence): 40% | plant injury at 62 g/ha (soybean (Glycine max); Preemergence): 20% | pest or weed control at 16 g/ha ([13]; 16 g ai/ha Preemergence): 100% | pest or weed control at 31 g/ha ([13]; 31 g ai/ha Preemergence): 100% | pest or weed control at 125 g/ha ([13]; 125 g ai/ha Preemergence): 100% | pest or weed control at 62 g/ha ([13]; Preemergence): 100% | pest or weed control at 16 g/ha ([14]; 16 g ai/ha Preemergence): 0% | pest or weed control at 31 g/ha ([14]; 31 g ai/ha Preemergence): 0% | pest or weed control at 125 g/ha ([14]; 125 g ai/ha Preemergence): 90% | pest or weed control at 62 g/ha ([14]; Preemergence): 50%

Source: patent US10131652B2, “Pyrimidinyloxy benzene derivatives as herbicides” (E. I. DU PONT DE NEMOURS AND COMPANY, priority 2014, dated 2018)
